From paper PMC9650263, “Synthesis and appraisal of dalbergin-loaded PLGA nanoparticles modified with galactose against hepatocellular carcinoma: In-vitro, pharmacokinetic, and in-silico studies” (Frontiers in Pharmacology, 2022)
In brackets after ≈: the same amount, converted by molar mass.

How the values were obtained:
[1] = In vitro drug release study; format: physicochemical; details: up to 48 h, 37°C; media pH 1.2 and 7.4 described, medium of the values not stated
Method: At pH values of 1.2 and 7.4, the drug release perspectives of DLF and DLMF were studied in both simulated gastric and simulated intestinal fluids. A flask was placed in an incubator with a water bath continually swirling (100 rev/min) and kept at a temperature of 37°C. The flask was filled with 10 ml of the appropriate medium and weighed amounts of DLF and DLMF that were sufficient for 10 mg of DL. The dissolving solution in the flask was then routinely replaced with new media at regular intervals, after which 2 ml of the sample was collected for DL detection. The samples were analyzed at 254 nm using a UV-Vis Spectrometer (Labtronics-2910, India), which was utilized to quantify the DL release. Triplicate dissolution tests were carried out. The data was analyzed to determine release kinetics ([Song, X., et al., 2018]; [Kanoujia, J., et al., 2021]; [Song, X., et al., 2019]; [Kumar, P., et al., 2018]).

[2] = system: HepG2 cell line; assay: SRB growth inhibition assay, anticancer efficacy; format: cell-based; details: Homo sapiens, HepG2, 48 h, 10-80 μg/ml, read-out: GI50 (growth inhibitory concentration)
Method: National Cell Repository of NCCS (Pune, India) provided the HepG2 cell line, which was then grown in our cell culture lab for further in vitro assays. The liver cancer cell lines were grown in a T-75 flask for 24 h at 37°C, 5% CO2, and absolute humidity equal to 100% in the Roswell Park Memorial Institute (RPMI)-1640 media with 10% fetal bovine serum and 2 mM L-glutamine. The cells were collected by centrifugation and incubated at a density of 5×10^3 cells/well onto 96 well plates to measure the growth. The test samples were distributed in dimethyl sulfoxide at 100 mg/ml concentration, diluted to 1 mg/ml equivalent drug concentration in distilled H2O. […] After removing the attached dye with 10 mM Trizma base, absorbance was measured at 540 nm using a 690 nm reference. The findings were acquired in triplicate on different plates, and the mean of the three trials was determined. The % cell growth was measured using absorbance data (time zero [Tz], control growth (C), and test growth in the presence of drug at different concentrations [Ti]. The % growth inhibition was calculated using the following formula Ti−Tz/C−Tz×100 for concentrations for which Ti≥Tz […]
It was shown that the quantity of protein formation was reduced by 50% at a medication concentration of […]. […]

[3] = Oral pharmacokinetic study, HPLC quantification in plasma; format: in vivo, albino Wistar rats; details: rat plasma, DL equivalent 100 mg/kg
Method: DL, DLF, and DLMF were administered orally to albino Wistar rats at a dose of DL equivalent to 100 mg/kg (Approval No: IU/IAEC/20/01), and after the first treatment, the blood samples were collected through retro-orbital plexus of the animals at 0.083, 0.25, 0.5, 1, 2, 4, 8, 12, 16, 24, and 48 h. The serum was isolated from the blood by centrifugation for 10 min at 10,000 rpm. The serum samples were kept at -20 °C until quantification by HPLC analysis.
A precise and accurate bioanalytical approach was devised for drug quantification in plasma samples. ACN was used to make 1 mg/ml stock solution of DL, and stock solution in ACN was used to make working standard solutions of 0.02, 0.1, 0.2, 0.5, 1, 2, 5, 10, 50, and 100 μg/ml. Overall, separate tubes containing 100 […] and 100 […] were vortexed for 30 min. The tubes were then spun at 13,000 rpm for 5 min. The supernatant was collected, transferred to fresh tubes, and allowed to dry overnight at a temperature of 40°C. After that, the tubes were reconstituted with 100 μL of ACN, vortexed for 5 minutes, and 20 μL of supernatant was injected into HPLC to quantify DL. The working solution concentrations were 0.01, 0.05, 0.1, 0.25, 0.5, 1, 2.5, 5.0, 25.0, and 50.0 μg/ml. Low-quality control (LQC), medium quality control (MQC), and high-quality control (HQC) samples were created with different quantities of 0.005, 0.5, and 40 μg/ml, respectively. It was necessary to create quality control samples and triplicate calibrations for each concentration. A test tube containing 100 μL of test plasma and 100 μL of ACN was vortexed for 30 min to create the test samples. To assess the final outcomes, WinNonlin version 1.5.3 was used ([Nisha et al., 2020a]; [Kumar, P., et al., 2018]; [Nisha et al., 2020b]).

- cumulative discharge (in vitro release) [1]: around 40.97 ± 3.01%
- GI50 [2]: 20 µg/mL (≈ 74.6 µM)
- AUC(0-inf) ([3]; albino Wistar): 244 ± 10.3 µg·h/mL
- Cmax ([3]; albino Wistar): 23100 ± 840 ng/mL
- MRT ([3]; albino Wistar): 11.5 ± 1.01 h
- Tmax ([3]; albino Wistar): 4 h
- half-life ([3]; albino Wistar): 578 min
- AUMC [3]: 2806.95 µg.h^2/ml
Structure (SMILES): COc1cc2oc(=O)cc(-c3ccccc3)c2cc1O [DL, 6-hydroxy-7-methoxy-4-phenyl-2H-cromen-2-one]
